Data on one molecule can be found in patent publication US20240336657A1, “G-ALPHA-S PEPTIDE INHIBITORS AND USES THEREOF” (The Regents of the University of California, priority 2021, published 2024).

The target of assay [1] is WT Gαs (Homo sapiens, UniProt P63092). In words: Adenylyl cyclase activity assay in membranes of GNAS KO HEK293 cells transfected with WT Gαs. The class given is biochemical. More on the design: expressed in transfected cells; host or cells: GNAS KO HEK293 cells (membranes). The note with it: WT Gαs reintroduced by transient transfection. The text has this:
To further assess the cellular specificity of GN13, we designed a GN13-resistant Gαs mutant based on structural analysis. […] We reasoned that mutating this serine residue to a bulky residue should create a drug-resistant Gαs mutant that blocks the GN13-Gαs interaction but would have little effect on adenylyl cyclase activation. […] By contrast, when the drug resistant mutant Gαs S275L was reintroduced into GNAS KO cells, the inhibitory effect of GN13 was abolished (FIG. 3I), providing further evidence that the observed pharmacological activity is due to GN13 binding to the switch II/α3 pocket in Gαs.
GN13 inhibition of Gαs proteins in HEK293 cell membranes (FIG. 17F and FIG. 18F).
a. Cell membrane preparation: HEK293cells, GNAS KO HEK293 cells were plated two day before transfection at a density of 1M cells per 10 cm plate. […] The protein concentrations were measured using BCA, and were normalized to 750 μg/mL. […] The cAMP concentrations were measured by the LANCE Ultra cAMP kit. […]
A cAMP standard curve was generated in the same plate using the 50 μM cAMP standard in the kit. […] 10 μL of each diluted sample was mixed with 5 μL of 4× Eu-cAMP tracer and 5 μL of 4× ULight-anti-cAMP in a white, opaque Optiplate-384 microplate, incubated for 1 hour at room temperature, and the time-resolved fluorescence resonance energy transfer (TR-FRET) signals were read on a Spark 20M plate reader. […]

Assay [2] concerns the target GppNHp-bound Gαs (Homo sapiens, UniProt P63092). The experiment in a line: Bio-layer interferometry (BLI) binding kinetics. More on the design: hexahistidine (N, cleaved yes); made in house; host or cells: Escherichia coli BL21(DE3). As for the experimental part: BLI experiments were performed using an OctetRED384 instrument from ForteBio. All experiments were performed at 25° C. using BLI buffer (10 mM HEPES pH 7.4, 150 mM NaCl, 1 mM MgCl2, 0.05% Tween-20, 0.1% DMSO, 0.2 mM GppNHp or GDP). Cyclic peptides were diluted to a series of concentrations in BLI buffer plus 10 μM Biotin. Assays were conducted in Greiner 384well, black, flat bottom polypropylene plates containing the protein solutions, BLI buffer plus 10 μM Biotin for dissociation, and serial dilutions of cyclic peptides to be tested.
Biotinylated proteins were immobilized on Streptavidin biosensors by dipping sensors into plate wells containing protein solutions at a concentration of 100-150 nM. Protein loading is around 2-3 nm. Sensors loaded with proteins were moved and dipped into wells with BLI buffer plus 10 μM Biotin to block unlabeled Streptavidin. Association-dissociation cycles of compounds were started by moving and dipping sensors to cyclic peptides dilutions and BLI buffer plus 10 μM Biotin wells alternatively. Association and dissociation times were carefully determined to ensure full association and dissociation.
Raw kinetic data collected were processed with the Data Analysis software provided by the manufacturer using single reference subtraction in which buffer-only reference was subtracted (For GN13 analysis). Because GD20 analogs have a low level of background binding, we used a double reference subtraction (buffer-only reference and non-protein-loading reference) method to calculate their kinetics values. The resulting data were analyzed based on a 1:1 binding model from which kon and koff values were obtained and then Kd values were calculated.
Background: BLI is a label-free optical method that tracks binding on a fibre tip over time.

Positions of bridges follow the written chain, without caps; N, C: chain ends. Non-standard residues stand in square brackets, D forms with d. Residues, ends and D or L forms follow the SMILES beside them.

WT Gαs, sequence (P63092 whole entry): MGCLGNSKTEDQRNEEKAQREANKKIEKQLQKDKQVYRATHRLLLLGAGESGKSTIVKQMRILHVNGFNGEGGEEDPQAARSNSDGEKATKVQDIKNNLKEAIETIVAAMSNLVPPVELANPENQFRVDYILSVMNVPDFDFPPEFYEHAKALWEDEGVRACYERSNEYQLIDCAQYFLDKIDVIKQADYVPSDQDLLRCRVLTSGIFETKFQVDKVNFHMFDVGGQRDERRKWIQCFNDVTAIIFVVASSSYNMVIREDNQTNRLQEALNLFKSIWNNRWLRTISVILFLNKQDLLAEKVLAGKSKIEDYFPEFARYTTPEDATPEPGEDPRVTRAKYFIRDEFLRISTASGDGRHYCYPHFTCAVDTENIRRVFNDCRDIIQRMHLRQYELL

For orientation: koff means a measure of how fast the partners let go of each other. Usually kon stands for the second-order rate constant of association. A lower kon goes with slow association. Broadly, the Kd is the equilibrium constant for the complex coming apart. Low values mean tighter binding, high ones weaker binding. `CC[C@H](C)[C@@H]1NC(=O)[C@H](C)NC(=O)[C@H](Cc2ccc(O)cc2)NC(=O)[C@H](C(C)C)NC(=O)[C@H](CO)NC(=O)[C@H](CCC(=O)O)NC(=O)[C@H](Cc2ccccc2)NC(=O)[C@@H](Cc2ccc(O)cc2)NC(=O)CSC[C@@H](C(=O)NCC(N)=O)NC(=O)[C@H](CC(C)C)NC(=O)[C@H]([C@@H](C)O)NC(=O)CNC(=O)[C@H](Cc2c[nH]c3ccccc23)NC1=O` [GN13] ({CH2CO}-[dY]FESVYAIWGTLCG-NH2; thioether N-13): the “inhibition of isoproterenol-mediated cAMP production in cell membranes” value in assay [1] is “able to inhibit”. In assay [2] (GppNHp/Gαs), this molecule had a koff of 0.0513 s⁻¹ and an on-rate (kon) of 271000 M⁻¹ s⁻¹. In assay [2] (immobilized GppNHp-bound Gαs), binding was put at a Kd of 190 ± 20 nM.
